Reference: patent US10827695B2, “Process for in vitro flowering in Crocus sativus L” (Council of Scientific & Industrial Research, priority 2015, dated 2020)

Test system: saffron crocus (Crocus sativus L.) corm explants
Assay: in-vitro induction of flowering / proliferation of floral primordia in corm explants on MS medium with PGR
Type: cell-based
Experimental: Accordingly, the incubation is carried out at a temperature in the range of 9° C. to 30° C. preferably at a temperature in the range of 9° C. to 21° C., with RH (relative humidity) in the range of 50 to 90%, and photoperiod of about 16 hours provided by 1/2/4 cool fluorescent tubes (Philips, 40 W), giving about 11.7 ? mol m−^2 s^−1 PPF (Photosynthetic Photon Flux) i.e. ˜866 lux (illuminance) each followed by 8-h dark period. The cultures are maintained for 4-5 weeks in the medium at above incubation conditions during which 80% of the culture remain sterile and show sprouting. They are then transferred to fresh MS medium of same composition and incubated under sterile conditions for about 1 to 2 weeks till the sprouted buds are about 8 cm long. The sprouted buds are slit vertically and incubated in MS medium of same composition for another 2 to 3 weeks under the same conditions. This helps the bud to open and grow further (FIG. 1 & FIG. 2).
(§1) Corms weighing ˜10 gm were used for the experiments. Explants were prepared by trimming the sides and base of the corms and making small cubes of about 1 cm^3 containing the dormant or slightly sprouted apical buds on 22 Oct. 2014.
These explants were surface sterilized by washing them with neutral Detergent Labolene for 10 min followed by washing with 15% Savlon for 10 minutes. Further, these explants were treated with 1% Bavistin (BASF) for 30 minutes followed by 5 min followed by 0.08% mercuric chloride treatment in a sterile work station (Laminar Air Flow cabinet). After each treatment the explants were washed with sterile distilled water.
Murashige and Skoog Medium supplemented with 6 benzyl amino purine (BAP) (1.0 mg/l) was used for culture. The media made in distilled water was further constituted with 3% sucrose and 0.6% agar. The final pH was adjusted at 5.7. The media was autoclaved at 121° C. at 15 lbs pressure for 20 minutes.
The cultures were maintained for 5 weeks in the medium at 25±2° C., light intensity 16-h light (at 11.7 ? mol m^−2s^−1) followed by 8-h dark period.
The sterile sprouted buds of 5-7 cms length were transferred to fresh medium of same composition after making a vertical slit on the sprouting bud. It helps the bud to open and grow further.
They were again incubated for 3 weeks under the same incubation conditions.
as §1, with “2014. One part of such samples was used for this set-up, while other was reserved for set ^-up of Example 3.” for “2014.”
The explants were surface sterilized by passing it through Detergent Labolene for 10 min followed by washing with 15% Savlon for 10 minutes. Further, the cubed explants were treated with 1% Bavistin (BASF) for 30 minutes followed by 5 min 0.08% mercuric chloride treatment in a sterile work station (Laminar Air Flow cabinet). After each treatment the explants were washed with sterile distilled water.
The cultures were maintained for 5 weeks in the medium at 25±2° C. Light intensity 16-h light (at 11.7 ? mol m^−2 s^−1) followed by 8-h dark period.
The sterile sprouted buds of 5-7 cm length were transferred to fresh medium of same composition after making a vertical slit on the sprouting bud.
The explants were surface sterilized by treating them with neutral detergent Labolene for 15 min followed by washing with 20% Savlon for 5 minutes. […]

| SMILES | flowering in cultures (Example 3, MS medium with 0.01, 0.05 and 0.1 mg/l, by last week of December 2014) | flowering in cultures maintained on fresh medium (Example 3, MS medium with 0.01, 0.05 and 0.1 mg/l, till May 2015) | flowering in cultures (Example 1, MS medium with 1.0 mg/l, explants prepared 22 Oct. 2014, observed by Nov. 5, 2014 (natural flowering season)) | flowering in cultures maintained on fresh medium (Example 2, MS medium with 1.0 mg/l, until May 2015) | initiation of flowering in culture (Example 2, MS medium with 1.0 mg/l, until late December 2014 (beyond natural flowering period)) |
| --- | --- | --- | --- | --- | --- |
| O=C(Nc1ccccc1)Nc1cnns1 [TDZ, thidiazuron] | Flowering was observed | flowering was observed |  |  |  |
| c1ccc(CNc2ncnc3nc[nH]c23)cc1 [BAP, 6-benzylaminopurine] |  |  | Flowering was observed | flowering was observed | Initiation of flowering was observed |
